The values that follow come from patent US12234221B2, “Pyridine carboxamide compounds for inhibiting NAV1.8” (Lieber Institute, Inc., priority 2018, dated 2025).

SMILES strings stand for the structures.

The target in this assay is T1, human Nav1.8 (hNav1.8) ion channel (Homo sapiens, UniProt Q9Y5Y9).
T1 construct: expressed in transfected cells; host or cells: HEK293
T1 sequence (Q9Y5Y9 whole entry): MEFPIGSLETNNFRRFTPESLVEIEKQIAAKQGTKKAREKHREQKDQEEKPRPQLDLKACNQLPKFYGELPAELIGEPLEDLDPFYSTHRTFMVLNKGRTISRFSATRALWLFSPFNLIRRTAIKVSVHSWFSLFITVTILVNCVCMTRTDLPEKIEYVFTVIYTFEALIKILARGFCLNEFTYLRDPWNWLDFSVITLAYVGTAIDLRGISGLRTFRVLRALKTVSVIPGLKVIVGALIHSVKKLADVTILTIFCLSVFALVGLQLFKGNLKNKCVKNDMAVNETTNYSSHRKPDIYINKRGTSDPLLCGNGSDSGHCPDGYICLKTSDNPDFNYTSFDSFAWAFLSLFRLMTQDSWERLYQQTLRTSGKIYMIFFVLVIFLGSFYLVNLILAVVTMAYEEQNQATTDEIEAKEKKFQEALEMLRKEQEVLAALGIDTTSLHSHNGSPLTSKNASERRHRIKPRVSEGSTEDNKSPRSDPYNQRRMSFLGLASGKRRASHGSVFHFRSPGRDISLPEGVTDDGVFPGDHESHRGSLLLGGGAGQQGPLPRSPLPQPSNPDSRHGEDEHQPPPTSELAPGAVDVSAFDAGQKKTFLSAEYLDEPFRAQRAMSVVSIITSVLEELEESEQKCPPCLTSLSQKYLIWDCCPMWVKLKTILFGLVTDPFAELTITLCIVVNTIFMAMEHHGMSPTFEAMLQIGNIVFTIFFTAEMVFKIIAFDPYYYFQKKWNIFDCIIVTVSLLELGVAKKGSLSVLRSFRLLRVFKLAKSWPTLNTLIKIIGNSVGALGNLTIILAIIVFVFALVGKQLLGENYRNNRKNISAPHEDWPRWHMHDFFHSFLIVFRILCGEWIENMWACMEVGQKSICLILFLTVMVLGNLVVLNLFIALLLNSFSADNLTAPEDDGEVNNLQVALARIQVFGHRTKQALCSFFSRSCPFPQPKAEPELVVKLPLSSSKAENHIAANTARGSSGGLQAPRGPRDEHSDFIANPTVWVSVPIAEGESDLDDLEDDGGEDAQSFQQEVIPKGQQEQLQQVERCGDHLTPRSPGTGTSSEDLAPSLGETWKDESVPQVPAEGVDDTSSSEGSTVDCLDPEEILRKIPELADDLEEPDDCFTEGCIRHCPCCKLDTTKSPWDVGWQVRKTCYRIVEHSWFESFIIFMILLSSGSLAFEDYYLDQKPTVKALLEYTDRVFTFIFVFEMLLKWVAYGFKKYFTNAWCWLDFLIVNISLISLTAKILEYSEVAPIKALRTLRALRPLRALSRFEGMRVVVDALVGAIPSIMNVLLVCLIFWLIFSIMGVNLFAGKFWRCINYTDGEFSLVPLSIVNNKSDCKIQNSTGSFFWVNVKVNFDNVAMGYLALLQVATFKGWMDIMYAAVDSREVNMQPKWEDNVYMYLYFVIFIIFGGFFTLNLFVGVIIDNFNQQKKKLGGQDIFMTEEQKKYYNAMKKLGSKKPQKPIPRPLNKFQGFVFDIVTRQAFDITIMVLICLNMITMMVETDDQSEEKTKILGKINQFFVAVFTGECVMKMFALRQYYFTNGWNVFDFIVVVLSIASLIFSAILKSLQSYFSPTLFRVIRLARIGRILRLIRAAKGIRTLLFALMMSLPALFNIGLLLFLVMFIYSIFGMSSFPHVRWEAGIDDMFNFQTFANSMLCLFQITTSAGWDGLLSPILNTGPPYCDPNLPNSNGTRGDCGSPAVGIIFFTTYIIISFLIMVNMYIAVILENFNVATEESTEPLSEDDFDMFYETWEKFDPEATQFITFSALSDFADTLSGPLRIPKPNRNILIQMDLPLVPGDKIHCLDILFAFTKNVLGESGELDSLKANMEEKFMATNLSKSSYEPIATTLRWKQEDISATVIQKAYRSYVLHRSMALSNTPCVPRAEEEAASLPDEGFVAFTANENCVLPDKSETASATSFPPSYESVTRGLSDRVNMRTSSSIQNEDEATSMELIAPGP
In words: Nav1.8 channel inhibition, estimated IC50 (one or more of: fluorescence inhibition assay, PatchXpress, IonFlux HT automated patch clamp). In kind it is cell-based. The note with it: HEK293 cells stably expressing hNav1.8; method used per compound not stated; read-out: Activity range (estimated IC50). As to the method: The ability of pyridine carboxamide derivatives exemplified above to inhibit the Nav1.8 channel was determined using one or more of the methods described below.
HEK Nav1.8 β1/β2 Stably Expressing Cell Line
A HEK293 cell line stably expressing the human Nav1.8 (hNav1.8) ion channel with β1/β2 subunits was constructed. The cell line is suitable for IC50 determination in fluorescence and electrophysiological based assays. It is also suitable to form mechanism of action pharmacology studies in electrophysiological assays. HEK293 Nav 1.8 cells are grown as adherent monolayers in DMEM/high glucose media, 10% fetal bovine serum, Na pyruvate (2 mM), Hepes (10 mM) with selection agents G418 (400 mg/L) and puromycin (0.5 mg/L) at 37 degrees C., 10% CO2.
Nav 1.8 Fluorescence Inhibition Assay
Compounds were made up to or supplied as a 10-mM stock solution using DMSO as the vehicle. Concentration-response curves were generated using a Matrix multichannel pipettor. Compound source plates were made by diluting 10 mM compound stocks to create 500 μM (100×) solutions in DMSO in 96-well v-bottom plates. Compounds were then serially diluted in 100% DMSO to generate a 5 point, 4-fold dilution scheme dose response curve. 2 μL of the 100× dose response curves was then added to preincubation and stimulation assay plates. 100 μL of pre-incubation buffer and 200 μL of stimulation buffer were then added to the plates resulting in a final assay test concentration range of 5 μM to 0.02 μM with a final DMSO concentration of 1%.
On the day of assay, plates were washed to remove cell culture media using 2K EBSS buffer (135 mM NaCl, 2 mM KCl, 5 mM Glucose, 2 mM CaCl2), 1 mM MgCl2, 10 mM HEPES, pH 7.4). The Na-sensitive fluorescent dye, Asante Natrium Green-2 (ANG-2) is incubated for 60 min to allow equilibration and then washed with 2K EBSS. Plates are the transferred to a fluorescence plate reader (FLIPR™, Molecular Devices) for fluorescence measurement using an excitation wavelength of 490 nm and an emission wavelength of 565 nm. Compounds are pre-incubated at for 5 min at final test concentration in the presence of ouabain (30 μM) to inhibit Na+ efflux through Na+/K+ exchanger. Following the pre-incubation phase, hNav1.8 channels are stimulated with 10 μM of the pyrethroid deltamethrin to prevent channel inactivation. The assay was run for 15 min with vehicle and 30 μM tetracaine serving as negative and positive controls, respectively. The peak change in fluorescence relative to negative and positive control wells was calculated and fit with a logistic equation to determine IC50.
PatchXpress Nav 1.8 Inhibition Assay
HEK-Nav1.8 β1/β2 cells were recorded in whole cell patch-clamp using the PatchXpress automated patch clamp platforms (Molecular Devices). Cells suspensions were obtained by trypsinization of adherent monolayers, followed by gentle rocking for minimally 30 min. Compounds were prepared from 10 mM DMSO stocks.
Nav1.8 channel variants were evaluated using Protocol 1 (FIG. 2) in which cells were initially voltage clamped at a holding potential of −100 mV to maintain Nav1.8 in a closed resting state. After current amplitude becomes stable, the mid-point voltage of steady state inactivation was determined for each cell using a series of 5 sec conditioning steps to increasingly depolarized voltages (−100 to 0 mV) The holding potential was then reset to a voltage that produces ˜50% inactivation (Vhalf−set automatically via PatchXpress scripts) so that closed and inactivated channel inhibition can be assessed. Protocol 1 was run at a frequency of 0.1 Hz until current amplitude is steady (automatically determined by PatchXpress scripts). The effect of test reagent on Nav current amplitude was monitored using custom PatchXpress stability scripts which determines the timing of compound addition and washout. Data were processed and analyzed using DataXpress 2.0 (Molecular Devices). […]
As a reminder, the IC50 is the point on the concentration scale where inhibition reaches its midpoint. For `CS(=N)(=O)c1cccc(NC(=O)c2cc(C(F)(F)F)cnc2Oc2ccc(OC(F)(F)F)cc2)c1` (single isomer, unassigned) [Example 130, N-[3-(methylsulfonimidoyl)phenyl]-2-[4-(trifluoromethoxy)phenoxy]-5-(trifluoromethyl)pyridine-3-carboxamide], the IC50 is under 500 nM.

As to `CS(=N)(=O)c1cccc(NC(=O)c2cc(C(F)(F)F)cnc2Oc2ccc(OC(F)(F)F)cc2)c1` (single isomer, unassigned) [Example 131, N-[3-(methylsulfonimidoyl)phenyl]-2-[4-(trifluoromethoxy)phenoxy]-5-(trifluoromethyl)pyridine-3-carboxamide], the IC50 is under 500 nM. As for `COc1cc(F)ccc1Oc1ncc(C(F)(F)F)cc1C(=O)Nc1ccc2ncsc2c1` [Example 1, N-(1,3-benzothiazol-6-yl)-2-(4-fluoro-2-methoxy-phenoxy)-5-(trifluoromethyl)pyridine-3-carboxamide], the figure is over 1000 nM. For the compound `COc1cc(F)ccc1Oc1ncc(C(F)(F)F)cc1C(=O)Nc1cccc(N2CCOCC2)c1` [Example 2, 2-(4-fluoro-2-methoxy-phenoxy)-N-(3-morpholinophenyl)-5-(trifluoromethyl)pyridine-3-carboxamide], the 50% inhibitory concentration (IC50) is over 1000 nM. As for `COc1cc(F)ccc1Oc1ncc(C(F)(F)F)cc1C(=O)Nc1cccc(C#N)c1` [Example 3, N-(3-cyanophenyl)-2-(4-fluoro-2-methoxy-phenoxy)-5-(trifluoromethyl)pyridine-3-carboxamide], the figure is under 500 nM; as for `COc1cc(F)ccc1Oc1ncc(C(F)(F)F)cc1C(=O)Nc1cccnc1` [Example 4, 2-(4-fluoro-2-methoxy-phenoxy)-N-(3-pyridyl)-5-(trifluoromethyl)pyridine-3-carboxamide], over 1000 nM. Turning to `COc1cc(F)ccc1Oc1ncc(C(F)(F)F)cc1C(=O)Nc1ccc(C#N)cc1` [Example 5, N-(4-cyanophenyl)-2-(4-fluoro-2-methoxy-phenoxy)-5-(trifluoromethyl)pyridine-3-carboxamide], the IC50 is over 1000 nM. Turning to `COc1cc(F)ccc1Oc1ncc(C(F)(F)F)cc1C(=O)Nc1ccncc1` [Example 6, 2-(4-fluoro-2-methoxy-phenoxy)-N-(4-pyridyl)-5-(trifluoromethyl)pyridine-3-carboxamide], the half-inhibitory concentration (IC50) was 500 to 1000 nM. Turning to `COc1cc(F)ccc1Oc1ncc(C(F)(F)F)cc1C(=O)Nc1ccc(C#N)nc1` [Example 7, N-(6-cyano-3-pyridyl)-2-(4-fluoro-2-methoxy-phenoxy)-5-(trifluoromethyl)pyridine-3-carboxamide], the half-inhibitory concentration (IC50) is over 1000 nM. Consider `COc1cc(F)ccc1Oc1ncc(C(F)(F)F)cc1C(=O)Nc1cccc([S+](C)[O-])c1` (centres unmarked) [Example 8, 2-(4-fluoro-2-methoxy-phenoxy)-N-(3-methylsulfinylphenyl)-5-(trifluoromethyl)pyridine-3-carboxamide], for which the concentration for half-maximal inhibition (IC50) was under 500 nM.

For the compound `COc1cc(F)ccc1Oc1ncc(C(F)(F)F)cc1C(=O)Nc1cccc(-c2cnco2)c1` [Example 9, 2-(4-fluoro-2-methoxy-phenoxy)-N-(3-oxazol-5-ylphenyl)-5-(trifluoromethyl)pyridine-3-carboxamide], the IC50 is over 1000 nM. Next, `COc1cc(F)ccc1Oc1ncc(C(F)(F)F)cc1C(=O)Nc1cccc(S(=O)(=O)N(C)C)c1` [Example 10, N-[3-(dimethylsulfamoyl)phenyl]-2-(4-fluoro-2-methoxy-phenoxy)-5-(trifluoromethyl)pyridine-3-carboxamide]: under 500 nM. Regarding `COc1cc(F)ccc1Oc1ncc(C(F)(F)F)cc1C(=O)Nc1nc2ccccc2s1` [Example 11, N-(1,3-benzothiazol-2-yl)-2-(4-fluoro-2-methoxy-phenoxy)-5-(trifluoromethyl)pyridine-3-carboxamide], the IC50 was over 1000 nM. As for `COc1cc(F)ccc1Oc1ncc(C(F)(F)F)cc1C(=O)Nc1ccncn1` [Example 12, 2-(4-fluoro-2-methoxy-phenoxy)-N-pyrimidin-4-yl-5-(trifluoromethyl)pyridine-3-carboxamide], the figure is under 500 nM; as for `COc1cc(F)ccc1Oc1ncc(C(F)(F)F)cc1C(=O)Nc1cccc(S(=O)(=O)C(F)(F)F)c1` [Example 13, 2-(4-fluoro-2-methoxy-phenoxy)-5-(trifluoromethyl)-N-[3-(trifluoromethylsulfonyl)phenyl]pyridine-3-carboxamide], over 1000 nM. `COc1cc(F)ccc1Oc1ncc(C(F)(F)F)cc1C(=O)Nc1cccc(S(C)(=N)=O)c1` (centres unmarked) [Example 14, 2-(4-fluoro-2-methoxy-phenoxy)-N-[3-(methylsulfonimidoyl)phenyl]-5-(trifluoromethyl)pyridine-3-carboxamide]: the IC50 is under 500 nM. As to `COc1cc(NC(=O)c2cc(C(F)(F)F)cnc2Oc2ccc(F)cc2OC)ccn1` [Example 15, 2-(4-fluoro-2-methoxy-phenoxy)-N-(2-methoxy-4-pyridyl)-5-(trifluoromethyl)pyridine-3-carboxamide], the half-inhibitory concentration (IC50) is over 1000 nM. Regarding `CN=S(C)(=O)c1cccc(NC(=O)c2cc(C(F)(F)F)cnc2Oc2ccc(F)cc2OC)c1` (centres unmarked) [Example 16, N-[3-(N,S-dimethylsulfonimidoyl)phenyl]-2-(4-fluoro-2-methoxy-phenoxy)-5-(trifluoromethyl)pyridine-3-carboxamide], the IC50 is under 500 nM.

As for `COc1cc(F)ccc1Oc1ncc(C(F)(F)F)cc1C(=O)Nc1ccnc(C)c1` [Example 17, 2-(4-fluoro-2-methoxy-phenoxy)-N-(2-methyl-4-pyridyl)-5-(trifluoromethyl)pyridine-3-carboxamide], the IC50 was over 1000 nM.

Take `COc1cc(F)ccc1Oc1ncc(C(F)(F)F)cc1C(=O)Nc1ccc(C)nc1` [Example 18, 2-(4-fluoro-2-methoxy-phenoxy)-N-(6-methyl-3-pyridyl)-5-(trifluoromethyl)pyridine-3-carboxamide]: the 50% inhibitory concentration (IC50) was over 1000 nM. As for `COc1cc(F)ccc1Oc1ncc(C(F)(F)F)cc1C(=O)Nc1ccnnc1` [Example 19, 2-(4-fluoro-2-methoxy-phenoxy)-N-pyridazin-4-yl-5-(trifluoromethyl)pyridine-3-carboxamide], the figure is 500 to 1000 nM; as for `COc1cc(F)ccc1Oc1ncc(C(F)(F)F)cc1C(=O)Nc1cccc(N=S(C)(C)=O)c1` [Example 20, N-[3-[[dimethyl(oxo)-λ^6-sulfanylidene]amino]phenyl]-2-(4-fluoro-2-methoxy-phenoxy)-5-(trifluoromethyl)pyridine-3-carboxamide], over 1000 nM; as for `CS(=O)(=O)c1cccc(NC(=O)c2cc(C(F)(F)F)cnc2Oc2ccc(Cl)cc2Cl)c1` [Example 21, 2-(2,4-dichlorophenoxy)-N-(3-methylsulfonylphenyl)-5-(trifluoromethyl)pyridine-3-carboxamide], under 500 nM.

Consider `Cc1ccc(Oc2ncc(C(F)(F)F)cc2C(=O)Nc2cccc(S(C)(=O)=O)c2)c(C)c1` [Example 22, 2-(2,4-dimethylphenoxy)-N-(3-methylsulfonylphenyl)-5-(trifluoromethyl)pyridine-3-carboxamide], for which the concentration for half-maximal inhibition (IC50) is over 1000 nM. Take `COc1ccc(Oc2ncc(C(F)(F)F)cc2C(=O)Nc2cccc(S(C)(=O)=O)c2)c(Cl)c1` [Example 23, 2-(2-chloro-4-methoxy-phenoxy)-N-(3-methylsulfonylphenyl)-5-(trifluoromethyl)pyridine-3-carboxamide]: the IC50 is under 500 nM. As for `CCCc1ccccc1Oc1ncc(C(F)(F)F)cc1C(=O)Nc1cccc(S(C)(=O)=O)c1` [Example 24, N-(3-methylsulfonylphenyl)-2-(2-propylphenoxy)-5-(trifluoromethyl)pyridine-3-carboxamide], the figure is over 1000 nM.
